pEC50: −log10 of the molar value.
Assays:
[1] = target: T1, TAX-4 (C. elegans tax-4 CNG channel subunit) (Caenorhabditis elegans, UniProt Q03611); assay: inside-out patch macroscopic current, Hill fit; assay type: cell-based
T1 sequence (Q03611 1-733): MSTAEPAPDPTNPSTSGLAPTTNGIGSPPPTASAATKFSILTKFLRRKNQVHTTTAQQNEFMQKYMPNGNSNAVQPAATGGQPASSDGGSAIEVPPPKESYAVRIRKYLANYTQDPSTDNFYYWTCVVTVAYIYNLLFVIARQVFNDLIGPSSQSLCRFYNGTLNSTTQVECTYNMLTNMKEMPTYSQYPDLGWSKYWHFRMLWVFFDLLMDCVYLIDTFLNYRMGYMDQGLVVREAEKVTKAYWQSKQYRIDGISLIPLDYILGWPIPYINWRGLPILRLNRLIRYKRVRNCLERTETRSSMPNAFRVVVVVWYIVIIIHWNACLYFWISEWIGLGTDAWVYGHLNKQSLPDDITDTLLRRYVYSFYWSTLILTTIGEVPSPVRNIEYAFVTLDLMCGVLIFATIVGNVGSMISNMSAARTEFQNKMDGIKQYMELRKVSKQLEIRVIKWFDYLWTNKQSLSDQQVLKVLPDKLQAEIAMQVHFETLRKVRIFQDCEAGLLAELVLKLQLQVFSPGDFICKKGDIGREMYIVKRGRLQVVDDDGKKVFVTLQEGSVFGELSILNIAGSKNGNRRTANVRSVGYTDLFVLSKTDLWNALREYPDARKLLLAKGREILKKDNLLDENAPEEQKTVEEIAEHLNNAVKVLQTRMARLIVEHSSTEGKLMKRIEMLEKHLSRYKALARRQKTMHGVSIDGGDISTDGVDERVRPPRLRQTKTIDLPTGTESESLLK

RTB = assay: inside-out patch macroscopic current, Hill fit; assay type: cell-based, Bos taurus / Caenorhabditis elegans; details: read-out: K 1/2; agonist; divalent-free solution pH 7.2; -80 or -100 mV; n = 5
RTL2 = assay: inside-out patch macroscopic current, Hill fit; assay type: cell-based, Bos taurus / Caenorhabditis elegans; details: read-out: K 1/2; agonist; divalent-free solution pH 7.2; -80 or -100 mV; n = 4
TRC = assay: inside-out patch macroscopic current, Hill fit; assay type: cell-based, Caenorhabditis elegans / Bos taurus; details: read-out: K 1/2; agonist; divalent-free solution pH 7.2; -80 or -100 mV; n = 4
ROPTL2 = assay: inside-out patch macroscopic current, Hill fit; assay type: cell-based, Bos taurus / Caenorhabditis elegans / Ictalurus punctatus; details: read-out: K 1/2; agonist; divalent-free solution pH 7.2; -80 or -100 mV; n = 4
RTC = assay: inside-out patch macroscopic current, Hill fit; assay type: cell-based, Bos taurus / Caenorhabditis elegans; details: read-out: K 1/2; agonist; divalent-free solution pH 7.2; -80 or -100 mV; n = 8
RTL = assay: inside-out patch macroscopic and single-channel currents, Hill fit; assay type: cell-based, Bos taurus / Caenorhabditis elegans; details: read-out: K 1/2; agonist; divalent-free solution pH 7.2; -80 or -100 mV; n = 8
RTL1 = assay: inside-out patch macroscopic current, Hill fit; assay type: cell-based, Bos taurus / Caenorhabditis elegans; details: read-out: K 1/2; agonist; divalent-free solution pH 7.2; -80 or -100 mV; n = 4

pEC50 [1]: 6.40 | pEC50 (RTB): 4.20 | pEC50 (RTL2): 5.40 | pEC50 (TRC): 5.33 | pEC50 (ROPTL2): 5.52 | pEC50 (RTC): 5.89 | pEC50 (RTL): 6.00 | pEC50 (RTL1): 4.62
Compound: Nc1nc2c(ncn2[C@@H]2O[C@@H]3COP(=O)(O)O[C@H]3[C@H]2O)c(=O)[nH]1 [cGMP]
